Experiments:
[1] = Pharmacokinetic test after single oral administration in ICR mice; type: in vivo; conditions: mouse, blood, ICR mice (male), 10 mg/kg
Protocol: The pharmacokinetic parameters were calculated using Excel® and WinNonlin6.1 software for the blood drug concentration according to the change over time obtained through LC-MS/MS, and changes in the blood concentration of the first component are shown in Table 11 and FIG. 9.

[2] = system: animal model of pulmonary fibrosis; experiment: Inflammation cell count analysis in BALF; type: in vivo; conditions: BLM mice, PO, day 21; first component 10 mg/kg, NIN 60 mg/kg, PID 200 mg/kg
Protocol: (§1) 70-100 uL of BLM solution (bleomycin 1-3 mg/kg) was administered to a lung of the acclimatized experimental animals using a catheter for 5 days or more. In accordance with the purpose of the test, the test drug was administered 7 days after BLM administration, and the drug was orally administered for 2 weeks until the 21st day of BLM administration.
At the sacrifice on the 21st day of administration, BALF (Bronchoalveolar lavage fluid) cells obtained through airway washing of mice were diluted with 1.05×PBS and attached to a slide, and then the slide was immersed and removed for 30 seconds in the order of 1, 2, 3 diff quick stain solution, and stained. It was counted based on 500 cells. Macrophages are the largest in size, mononuclear, and stained blue. Neutrophils and eosinophils form polynuclear cells, but eosinophils are stained red with eosin and distinguished from neutrophils. Lymphocytes have very less cytoplasm and are small in size as monocytes.

[3] = system: animal model of pulmonary fibrosis; experiment: Measurement of total collagen content in lung (INSOLUBLE Collagen Assay); type: in vivo, mouse; conditions: BLM mice, PO, day 21, n 9; first component 10 mg/kg, NIN 60 mg/kg, PID 200 mg/kg
Protocol: as §1
In this experimental example, analysis was performed using INSOLUBLE Collagen Assay (Biocolor, S2000). After sacrifice on the 21st day, the cryopreserved lung tissue was pulverized by adding 100 uL of Fragmentation Reagent, and then, 100 uL of 37% HCl was added and incubated at 65° C. for 3 hours. The contents of the tube were shaken at 30 minute intervals to aid tissue disintegration. After centrifugation, the concentration was adjusted to 100 μL and collagen staining was proceeded to prepare a sample. Absorbance was measured at 560 nm.

[4] = system: animal model of pulmonary fibrosis; experiment: Histopathology (Ashcroft score) analysis, Fibrotic Index; type: in vivo, mouse; conditions: BLM mice, PO, day 21; first component 10 mg/kg, PID 200 mg/kg
Protocol: as §1
The degree of fibrosis and inflammation of the lung tissue were visually observed through a microscope, and the degree of fibrosis of lung tissue was measured with a Fibrotic Index according to normalized criteria. The higher the Fibrotic Index value, the more severe the degree and symptom of fibrosis. It is interpreted that as the value is lower, the symptom is alleviated.
On the 21st day, lung tissue was separated and stained using H&E and MT stain, and observed under a microscope at 200× magnification. The observed results were scored by Ashcroft (Hubner et al., 2008). The fibrotic index was calculated by dividing the sum of the adjusted Ashcroft field scores by the number of fields tested, and shown in Table 7 and FIG. 4.

[5] = system: animal model of pulmonary fibrosis; experiment: Lung function evaluation (SpO2) in BLM animal model; type: in vivo, mouse; conditions: BLM mice, PO, day 21, first component 10 mg/kg, NIN 60 mg/kg, PID 200 mg/kg; for SpO2 Differance / SpO2 Rate of increase: vs vehicle
Protocol: as §1
This lung function evaluation is the most direct and important evaluation index that has the greatest influence on the symptoms and quality of life of patients with pulmonary fibrosis, and is an experiment that can most directly show the effect of improving lung function in an animal model of pulmonary fibrosis by measuring the oxygen concentration in the body.
On the 21st day, it was measured with a SpO2 measuring device (Berry, Veterinary Pulse Oximeter) via the abdominal side of the mouse, and the results are shown in Table 5 and FIG. 3.

DHLF cell line = experiment: Non-clinical anti-fibrotic efficacy: Western blotting of TGF-β treated DHLF cell line; type: cell-based; conditions: TGF-β 10 ng/ml, 72 hours
Protocol: 10 mM of the first component was diluted with DMSO so as to be to 100 uM. It was diluted with DMSO so as to be 10, 3, 1 uM, and 10 mM of the second component (NIN) was diluted with DMSO to be 50 nM.
A DHLF cell line (FGM™-2 Bullet Kit™, 10% FBS), which is a lung fibrosis cell line, was prepared, and cultured in a T75 Easy Flask Filter at 37° C. and 5% CO2 using FBM medium. The cultured DHLF cell line was treated with 10 ng/mL of TGF-β and the test drug alone or in combination, cultured for 72 hours, then the media was removed, the protein was extracted, and the extracted protein was quantified using the BCA Protein Assay Kit. Based on the quantitative value of each extracted protein, 10 to 20 ug of protein was subjected to Western blotting. The protein after running was transferred to the PVDF membrane. After TBS-T washing 3 times, each PVDF membrane was treated with 1 mL of ECL solution, and then the protein expression level was measured using an AI680 imager. Each band value was calculated as a numerical value normalized compared to β-actin through ImageJ, and is shown in Tables 2 and 3 and FIGS. 1 and 2 below.

[6] = Measurement of change in body weight in BLM animal model; type: in vivo, mouse; parameters: unit not given here; conditions: BLM mice, first component 10 mg/kg, NIN 60 mg/kg, PID 200 mg/kg
Protocol: as §1
The body weight was measured once every 0, 7, 14, 17, and 21 days for 3 weeks, and from the 14th day when the drug effect began to be noticeable after the administration, it was measured every 3 days.

[7] = Table 2, first component 10 ug/ml alone
[8] = Table 3, first component 5 ug/ml alone

Compound | Eosinophil count in BALF [2] | Lymphocyte count in BALF [2] | Macrophage count in BALF [2] | Neutrophil count in BALF [2] | total cell in BALF [2] | total collagen content in lung (hydroxyproline value, ratio compared with normal group) [3] | Fibrotic Index (±SEM) [4] | SpO2 Average value [5] | SpO2 Differance [5] | SpO2 Rate of increase [5] [%] | change in body weight ([6]; Day 0) | change in body weight ([6]; Day 7) | change in body weight ([6]; Day 14) | change in body weight ([6]; Day 17) | change in body weight ([6]; Day 21) | other results
O[C@H]1CCCN[C@@H]1CCCn1cnc2c(Cl)c(Cl)ccc21 [First component] | 0 | 7 | 60 | 17 | 84 10^4 | 228 | 4.6 (±0.6) | 79.1 | 3.1 | 4 | 0.0 | −10.1 | −22.7 | −22.2 | −20.5 | AUC(0-inf) [1]: 1190 ng·h/mL; AUC(0-t) [1]: 1070 ± 210 ng·h/mL; Cmax [1]: 263 ± 32 ng/mL; Tmax [1]: 2.67 ± 1.15 h; half-life [1]: 150 ± 149 min; COL1A1 Relative value (based on control) (DHLF cell line; [7]): 3.26; SMA-α Relative value (based on control) (DHLF cell line; [7]): 1.66; COL1A1 Relative value (based on control) (DHLF cell line; [8]): 3.84; SMA-α Relative value (based on control) (DHLF cell line; [8]): 3.53
Cc1ccc(=O)n(-c2ccccc2)c1 [Second component (PID), Pirfenidone] | 0 | 6 | 55 | 12 | 74 10^4 | 156 | 3.7 (±0.7) | 81.7 | 5.7 | 7 | 0.0 | −10.2 | −22.7 | −18.1 | −16.5 | SpO2 Rate of increase ([5]; listed as PID): 7%

From US20240238278A1, “Pharmaceutical Composition for Preventing or Treating Fibrosis” (Daewoong Pharmaceutical Co., Ltd., priority 2021, published 2024)
